# Measured values as given in ChEMBL document CHEMBL1201861, “Genomics of Drug Sensitity in Cancer screening data, Wellcome Trust Sanger Institute”.
# Key:
# Assay in all cases: cells
# [1] = system: SW948; type: functional, cell-based, Homo sapiens; details: Homo sapiens, SW948;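 further: growth inhibition of SW948 cells, read out with a cell viability assay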
# Description: SANGER: Inhibition of human SW948 cell growth in a cell viability assay.
# [2] = system: KP-4; type: functional, cell-based, Homo sapiens; details: Homo sapiens, KP-4; read-out: IC50;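 further: human KP-4 cells, with growth inhibition read out through a cell viability assay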
# Description: SANGER: Inhibition of human KP-4 cell growth in a cell viability assay.
# [3] = system: SK-MEL-28; type: functional, cell-based; details: Homo sapiens;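 further: growth inhibition of human SK-MEL-28 cells, read out with a cell viability assay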
# Description: SANGER: Inhibition of human SK-MEL-28 cell growth in a cell viability assay.
# [4] = system: OS-RC-2; type: functional, cell-based, Homo sapiens; details: Homo sapiens, OS-RC-2;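 further: growth inhibition of human OS-RC-2 cells, measured by a cell viability assay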
# Description: SANGER: Inhibition of human OS-RC-2 cell growth in a cell viability assay.
# [5] = system: DMS-114; type: functional, cell-based, Homo sapiens; details: Homo sapiens, DMS-114
# [6] = system: NCI-H1563; type: functional, cell-based, Homo sapiens; details: Homo sapiens, NCI-H1563;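 further: growth inhibition of human NCI-H1563 cells, read out with a cell viability assay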
# Description: SANGER: Inhibition of human NCI-H1563 cell growth in a cell viability assay.
# [7] = system: LAMA-84; type: functional, cell-based; details: Homo sapiens;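 further: growth inhibition of LAMA-84 cells, read out with a cell viability assay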
# Description: SANGER: Inhibition of human LAMA-84 cell growth in a cell viability assay.
# [8] = system: SK-N-FI; type: functional, cell-based, Homo sapiens; details: Homo sapiens, SK-N-FI;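 further: cell viability assay measuring growth inhibition of human SK-N-FI cells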
# Description: SANGER: Inhibition of human SK-N-FI cell growth in a cell viability assay.
# [9] = system: BHY; type: functional, cell-based, Homo sapiens; details: Homo sapiens, BHY;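 further: cell growth inhibition read out by a viability assay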
# Description: SANGER: Inhibition of human BHY cell growth in a cell viability assay.
# [10] = system: SK-NEP-1; type: functional, cell-based; details: Homo sapiens;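 further: growth inhibition of human SK-NEP-1 cells, read out by a cell viability assay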
# Description: SANGER: Inhibition of human SK-NEP-1 cell growth in a cell viability assay.
# [11] = system: SW626; type: functional, cell-based, Homo sapiens; details: Homo sapiens, SW626;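 further: growth inhibition of SW626 cells, measured with a cell viability assay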
# Description: SANGER: Inhibition of human SW626 cell growth in a cell viability assay.
# [12] = system: A101D; type: functional, cell-based, Homo sapiens; details: Homo sapiens, A101D;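 further: growth inhibition of the cell line, measured with a viability assay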
# Description: SANGER: Inhibition of human A101D cell growth in a cell viability assay.
# [13] = system: NB13; type: functional, cell-based, Homo sapiens; details: Homo sapiens, NB13;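 further: cell viability readout measuring growth inhibition of human NB13 cells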
# Description: SANGER: Inhibition of human NB13 cell growth in a cell viability assay.
# [14] = system: SK-MEL-24; type: functional, cell-based; details: Homo sapiens;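 further: growth inhibition read out by a cell viability assay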
# Description: SANGER: Inhibition of human SK-MEL-24 cell growth in a cell viability assay.
# [15] = system: SW684; type: functional, cell-based, Homo sapiens; details: Homo sapiens, SW684;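 further: growth inhibition of human SW684 cells, measured by a cell viability assay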
# Description: SANGER: Inhibition of human SW684 cell growth in a cell viability assay.
# [16] = system: CTB-1; type: functional, cell-based; details: Homo sapiens
# Description: SANGER: Inhibition of human CTB-1 cell growth in a cell viability assay.
# [17] = system: SW1783; type: functional, cell-based; details: Homo sapiens;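 further: cell growth inhibition measured with a viability assay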
# Description: SANGER: Inhibition of human SW1783 cell growth in a cell viability assay.
# [18] = system: NCI-H1838; type: functional, cell-based, Homo sapiens; details: Homo sapiens, NCI-H1838;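 further: growth inhibition of NCI-H1838 cells, determined with a cell viability readout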
# Description: SANGER: Inhibition of human NCI-H1838 cell growth in a cell viability assay.
# [19] = system: D-263MG; type: functional, cell-based, Homo sapiens; details: Homo sapiens, D-263MG
# Description: SANGER: Inhibition of human D-263MG cell growth in a cell viability assay.
# [20] = system: HT1197; type: functional, cell-based, Homo sapiens, HT-1197; details: Homo sapiens, HT1197
# Description: SANGER: Inhibition of human HT-1197 cell growth in a cell viability assay.
# [21] = system: Becker; type: functional, cell-based, Homo sapiens; details: Homo sapiens, Becker;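 further: growth inhibition of Becker cells, read out with a cell viability assay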
# Description: SANGER: Inhibition of human Becker cell growth in a cell viability assay.
# [22] = system: IA-LM; type: functional, cell-based, Homo sapiens; details: Homo sapiens, IA-LM;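 further: cell viability assay measuring growth inhibition of human IA-LM cells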
# Description: SANGER: Inhibition of human IA-LM cell growth in a cell viability assay.
# [23] = system: HT; type: functional, cell-based; details: Homo sapiens
# Description: SANGER: Inhibition of human HT cell growth in a cell viability assay.
# [24] = system: NEC8; type: functional, cell-based, Homo sapiens; details: Homo sapiens, NEC8;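 further: growth inhibition of human NEC8 cells, read out by a cell viability assay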
# Description: SANGER: Inhibition of human NEC8 cell growth in a cell viability assay.
# [25] = system: LB2241-RCC; type: functional, cell-based, Homo sapiens; details: Homo sapiens, LB2241-RCC;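 further: cell viability assay measuring how strongly the cultured human renal carcinoma line is prevented from growing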
# Description: SANGER: Inhibition of human LB2241-RCC cell growth in a cell viability assay.
# [26] = system: 5637; type: functional, cell-based, Homo sapiens; details: Homo sapiens
# Description: SANGER: Inhibition of human 5637 cell growth in a cell viability assay.
# [27] = system: YKG-1; type: functional, cell-based, Homo sapiens; details: Homo sapiens, YKG-1;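 further: cell growth inhibition, read out with a viability assay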
# Description: SANGER: Inhibition of human YKG-1 cell growth in a cell viability assay.
# [28] = system: G-401; type: functional, cell-based, Homo sapiens; details: Homo sapiens, G-401
# Description: SANGER: Inhibition of human G-401 cell growth in a cell viability assay.
# [29] = system: NB69; type: functional, cell-based, Homo sapiens; details: Homo sapiens, NB69;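 further: growth inhibition of NB69 cells, determined by a cell viability assay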
# Description: SANGER: Inhibition of human NB69 cell growth in a cell viability assay.
# [30] = system: NCI-H2122; type: functional, cell-based, Homo sapiens; details: Homo sapiens, NCI-H2122;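 further: growth inhibition of the cells, read out with a cell viability assay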
# Description: SANGER: Inhibition of human NCI-H2122 cell growth in a cell viability assay.
# [31] = system: Lu-65; type: functional, cell-based; details: Homo sapiens;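 further: growth inhibition of Lu-65 cancer cells, read out by a cell viability assay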
# Description: SANGER: Inhibition of human LU-65 cell growth in a cell viability assay.
# [32] = system: KYSE-520 cell line; type: functional, cell-based, Homo sapiens; details: Homo sapiens, KYSE-520;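 further: growth inhibition of human KYSE-520 cells, read out with a viability assay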
# Description: SANGER: Inhibition of human KYSE-520 cell growth in a cell viability assay.
# [33] = system: CTV-1; type: functional, cell-based; details: Homo sapiens;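 further: growth inhibition of the cell line, read out with a cell viability assay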
# Description: SANGER: Inhibition of human CTV-1 cell growth in a cell viability assay.
# [34] = system: MG-63; type: functional, cell-based, Homo sapiens; details: Homo sapiens, MG-63;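 further: growth inhibition of human MG-63 cells, read out with a cell viability assay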
# Description: SANGER: Inhibition of human MG-63 cell growth in a cell viability assay.
# [35] = system: NCI-H1395; type: functional, cell-based, Homo sapiens; details: Homo sapiens, NCI-H1395;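 further: cell viability assay read-out quantifying reduced proliferation of human NCI-H1395 cells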
# Description: SANGER: Inhibition of human NCI-H1395 cell growth in a cell viability assay.
# [36] = system: NB12; type: functional, cell-based, Homo sapiens; details: Homo sapiens, NB12;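 further: growth inhibition of human NB12 cells, read out by a cell viability assay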
# Description: SANGER: Inhibition of human NB12 cell growth in a cell viability assay.
# [37] = system: NCI-H2087; type: functional, cell-based, Homo sapiens; details: Homo sapiens, NCI-H2087;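 further: growth inhibition determined with a cell viability readout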
# Description: SANGER: Inhibition of human NCI-H2087 cell growth in a cell viability assay.
# [38] = system: BXPC-3; type: functional, cell-based, Homo sapiens; details: Homo sapiens, BXPC-3;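 further: growth inhibition of human BxPC-3 cells, read out by a cell viability assay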
# Description: SANGER: Inhibition of human BxPC-3 cell growth in a cell viability assay.
# [39] = system: ALL-PO; type: functional, cell-based; details: Homo sapiens;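 further: growth inhibition of ALL-PO cells, read out by a cell viability assay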
# Description: SANGER: Inhibition of human ALL-PO cell growth in a cell viability assay.
# [40] = system: MCF7; type: functional, cell-based, Homo sapiens; details: Homo sapiens, MCF7;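 further: growth inhibition of human MCF7 cells, read out with a cell viability assay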
# Description: SANGER: Inhibition of human MCF7 cell growth in a cell viability assay.
# [41] = system: KALS-1; type: functional, cell-based, Homo sapiens; details: Homo sapiens, KALS-1;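 further: growth inhibition of KALS-1 cells, determined with a cell viability assay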
# Description: SANGER: Inhibition of human KALS-1 cell growth in a cell viability assay.
# [42] = system: UACC-893; type: functional, cell-based, Homo sapiens; details: Homo sapiens, UACC-893
# Description: SANGER: Inhibition of human UACC-893 cell growth in a cell viability assay.
# [43] = system: HCC1806; type: functional, cell-based, Homo sapiens; details: Homo sapiens, HCC1806;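 further: growth inhibition of the cancer cell line, determined with a cell viability assay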
# Description: SANGER: Inhibition of human HCC1806 cell growth in a cell viability assay.
# [44] = system: Ca-Ski; type: functional, cell-based; details: Homo sapiens;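 further: cell viability assay measuring inhibition of Ca-Ski cell growth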
# Description: SANGER: Inhibition of human Ca-Ski cell growth in a cell viability assay.
# [45] = system: SAS; type: functional, cell-based, Homo sapiens; details: Homo sapiens, SAS;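 further: growth inhibition of SAS cells, read out with a cell viability assay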
# Description: SANGER: Inhibition of human SAS cell growth in a cell viability assay.
# [46] = system: NCI-H2126; type: functional, cell-based, Homo sapiens; details: Homo sapiens, NCI-H2126;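 further: growth inhibition of the cancer cell line, determined with a cell viability readout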
# Description: SANGER: Inhibition of human NCI-H2126 cell growth in a cell viability assay.
# [47] = system: GCT; type: functional, cell-based, Homo sapiens; details: Homo sapiens, GCT;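 further: GCT cell line proliferation inhibition, read out with a cell viability assay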
# Description: SANGER: Inhibition of human GCT cell growth in a cell viability assay.
# [48] = system: HEC-1; type: functional, cell-based, Homo sapiens; details: Homo sapiens, HEC-1;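 further: growth inhibition of the cell line, read out with a cell viability assay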
# Description: SANGER: Inhibition of human HEC-1 cell growth in a cell viability assay.
# [49] = system: ETK-1; type: functional, cell-based, Homo sapiens; details: Homo sapiens, ETK-1;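 further: growth inhibition of human ETK-1 cells, read out with a cell viability assay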
# Description: SANGER: Inhibition of human ETK-1 cell growth in a cell viability assay.
# [50] = system: SW 962; type: functional, cell-based, Homo sapiens; details: Homo sapiens, SW 962;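 further: growth inhibition of human SW962 cells, read out by a cell viability assay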
# Description: SANGER: Inhibition of human SW962 cell growth in a cell viability assay.
# [51] = system: BT-20; type: functional, cell-based, Homo sapiens; details: Homo sapiens, BT-20;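 further: cell viability assay measuring suppression of growth in human BT-20 cells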
# Description: SANGER: Inhibition of human BT-20 cell growth in a cell viability assay.
structure (smiles),measurement,setting,value
CN(Cc1cnc2nc(N)nc(N)c2n1)c1ccc(C(=O)N[C@@H](CCC(=O)O)C(=O)O)cc1 [METHOTREXATE],IC50,[1],> 200 nM
same,IC50,[2],> 200 nM
same,IC50,[3],> 200 nM
same,IC50,[4],> 200 nM
same,IC50,[5],> 200 nM
same,IC50,[6],> 200 nM
same,IC50,[7],12.4 nM
same,IC50,[8],> 200 nM
same,IC50,[9],> 200 nM
same,IC50,[10],4.82 nM
same,IC50,[11],> 200 nM
same,IC50,[12],> 200 nM
same,IC50,[13],> 200 nM
same,IC50,[14],> 200 nM
same,IC50,[15],> 200 nM
same,IC50,[16],16.2 nM
same,IC50,[17],> 200 nM
same,IC50,[18],> 200 nM
same,IC50,[19],> 200 nM
same,IC50,[20],> 200 nM
same,IC50,[21],> 200 nM
same,IC50,[22],> 200 nM
same,IC50,[23],134 nM
same,IC50,[24],> 200 nM
same,IC50,[25],> 200 nM
same,IC50,[26],> 200 nM
same,IC50,[27],> 200 nM
same,IC50,[28],> 200 nM
same,IC50,[29],> 200 nM
same,IC50,[30],151 nM
same,IC50,[31],> 200 nM
same,IC50,[32],> 200 nM
same,IC50,[33],77.1 nM
same,IC50,[34],197 nM
same,IC50,[35],> 200 nM
same,IC50,[36],> 200 nM
same,IC50,[37],> 200 nM
same,IC50,[38],> 200 nM
same,IC50,[39],5.86 nM
same,IC50,[40],> 200 nM
same,IC50,[41],> 200 nM
same,IC50,[42],> 200 nM
same,IC50,[43],> 200 nM
same,IC50,[44],> 200 nM
same,IC50,[45],> 200 nM
same,IC50,[46],> 200 nM
same,IC50,[47],> 200 nM
same,IC50,[48],> 200 nM
same,IC50,[49],> 200 nM
same,IC50,[50],> 200 nM
same,IC50,[51],> 200 nM
